Test results: patent publication US20050197350A1, “Novel quinoline, tetrahydroquinazoline, and pyrimidine derivatives and methods of treatment related to the use thereof” (TAISHO PHARMACEUTICAL CO., LTD., priority 2003, published 2005)
Structures can show the parent of a compound that is named as a salt.

These molecules were tested against MCH receptor (Homo sapiens, UniProt Q99705) (assay: High throughput functional screening FLIPR/FDSS6000 (intracellular Ca2+ evoked by MCH)). Conditions: FLIPR/FDSS, antagonist activity vs 50 nM MCH; class by percent of control at 10^−7 M or IC50; table after the classification; read-out: class.
Assay type: cell-based
Text: High Throughput Functional Screening: FLIPR™
This assay utilized a non-endogenous, constitutively active version of the MCH receptor.
The concentration of free Ca^2+ in the cytosol of any cell is extremely low, whereas its concentration in the extracellular fluid and endoplasmic reticulum (ER) is very high. Thus, there is a large gradient tending to drive Ca^2+ into the cytosol across both the plasma membrane and ER. The FLIPR™ and FDSS6000™ systems (Molecular Devices Corporation, […] Photonics K.K.) are designed to perform functional cell-based assays, such as the measurement of intracellular calcium for high-throughput screening. The measurement of fluorescent is associated with calcium release upon activation of the Gq-coupled receptors.
Fluorometric Imaging Plate Reader system was used to allow for rapid, kinetic measurements of intracellular fluorescence in 96 well microplates (or 384 well microplates). Simultaneous measurements of fluorescence in all wells can be made by FLIPR or FDSS6000™ every second with high sensitivity and precision. These systems are ideal for measuring cell-based functional assays such as monitoring the intracellular calcium fluxes that occur within seconds after activation of the Gq coupled receptor.
Briefly, the cells are seeded into 96 well at 5.5×10^4 cells/well with complete culture media (Dulbecco's Modified Eagle Medium with 10% fetal bovine serum, 2 mM L-glutamine, 1 mM sodium pyruvate and 0.5 mg/ml G418, pH 7.4) for the assay next day. On the day of assay, the media is removed and the cells are incubated with 100 μl of loading buffer (4 μM Fluo4-AM in complete culture media containing 2.5 mM Probenicid, 0.5 mg/ml and 0.2% bovine serum albumin) in 5% CO2 incubator at 37° C. for 1 hr. The loading buffer is removed, and the cells are washed with wash buffer (Hank's Balanced Salt Solution containing 2.5 mM Probenicid, 20 mM HEPES, 0.5 mg/ml and 0.2% bovine serum albumin, pH 7.4)). One hundred fifty μl of wash buffer containing various concentrations of test compound is added to the cells, and the cells are incubated in 5% CO2 incubator at 37° C. for 30 min. […] 530 nm for 290 second. When antagonist activity of compound is tested, 50 nM of MCH is used.
Use of FLIPR™ and FDSS6000™ can be accomplished by following manufacturer's instruction (Molecular Device Corporation and […] Photonics K.K.).
COc1ccc(Oc2ncccc2C(=O)N[C@H]2CC[C@@H](Nc3ccc4ccccc4n3)CC2)cc1 [Example 3059, 2-(4-Methoxy-phenoxy)-N-[cis-4-(quinolin-2-ylamino)-cyclohexyl]-nicotinamide hydrochloride] was tested, and the IC50 was under 50 nM. With O=C(N[C@H]1CC[C@@H](Nc2ccc3ccccc3n2)CC1)c1cccnc1Oc1ccc(F)c(Cl)c1 [Example 3060, 2-(3-Chloro-4-fluoro-phenoxy)-N-[cis-4-(quinolin-2-ylamino)-cyclohexyl]-nicotinamide hydrochloride] the IC50 was 50 to 200 nM. Cc1cccc(Oc2ncccc2C(=O)N[C@H]2CC[C@@H](Nc3ccc4ccccc4n3)CC2)c1 [Example 3061, N-[cis-4-(Quinolin-2-ylamino)-cyclohexyl]-2-m-tolyloxy-nicotinamide hydrochloride] showed an IC50 of under 50 nM. COc1cccc(OCC(=O)N[C@H]2CC[C@@H](Nc3ccc4ccccc4n3)CC2)c1 [Example 3062, 2-(3-Methoxy-phenoxy)-N-[cis-4-(quinolin-2-ylamino)-cyclohexyl]-acetamide hydrochloride] was tested, and the IC50 was under 50 nM. In the case of O=C(COc1cccc(Cl)c1)N[C@H]1CC[C@@H](Nc2ccc3ccccc3n2)CC1 [Example 3063, 2-(3-Chloro-phenoxy)-N-[cis-4-(quinolin-2-ylamino)-cyclohexyl]-acetamide hydrochloride], the IC50 is reported as under 50 nM. With O=C(COc1ccc(F)c(Cl)c1)N[C@H]1CC[C@@H](Nc2ccc3ccccc3n2)CC1 [Example 3064, 2-(3-Chloro-4-fluoro-phenoxy)-N-[cis-4-(quinolin-2-ylamino)-cyclohexyl]-acetamide hydrochloride] the IC50 was under 50 nM. Work on O=C(COc1ccc(Cl)c(Cl)c1)N[C@H]1CC[C@@H](Nc2ccc3ccccc3n2)CC1 [Example 3065, 2-(3,4-Dichloro-phenoxy)-N-[cis-4-(quinolin-2-ylamino)-cyclohexyl]-acetamide hydrochloride] yielded an IC50 of under 50 nM. CN(CC(=O)N[C@H]1CC[C@@H](Nc2ccc3ccccc3n2)CC1)c1ccccc1 [Example 3066, C-(Methyl-phenyl-amino)-N-[cis-4-(quinolin-2-ylamino)-cyclohexyl]-acetamide dihydrochloride] showed an IC50 of under 50 nM. O=C(CNc1ccc(Cl)c(Cl)c1)N[C@H]1CC[C@@H](Nc2ccc3ccccc3n2)CC1 [Example 3067, 2-(3,4-Dichloro-phenylamino)-N-[cis-4-(quinolin-2-ylamino)-cyclohexyl]-acetamide dihydrochloride] showed an IC50 of 50 to 200 nM. In the case of O=C(NC[C@H]1CC[C@@H](Nc2ccc3ccccc3n2)CC1)c1ccc(F)c(F)c1 [Example 3068, 3,4-Difluoro-N-[cis-4-(quinolin-2-ylamino)-cyclohexylmethyl]-benzamide hydrochloride], the IC50 is reported as 50 to 200 nM. Molecule O=C(NC[C@H]1CC[C@@H](Nc2ccc3ccccc3n2)CC1)c1cccnc1Oc1ccccc1 [Example 3069, 2-Phenoxy-N-[cis-4-(quinolin-2-ylamino)-cyclohexylmethyl]-nicotinamide hydrochloride] has an IC50 of 50 to 200 nM. Cc1cc(N[C@H]2CC[C@@H](NC(=O)c3cccnc3Oc3ccccc3)CC2)nc2ccccc12 [Example 3070, N-[cis-4-(4-Methylquinolin-2-ylamino)-cyclohexyl]-2-phenoxy-nicotinamide hydrochloride] showed an IC50 of under 50 nM. Cc1cc(N[C@H]2CC[C@@H](NC(=O)Nc3cccc(Cl)c3Cl)CC2)nc2ccccc12 [Example 3072, 1-(2,3-Dichloro-phenyl)-3-[cis-4-(4-methyl-quinolin-2-ylamino)-cyclohexyl]-urea hydrochloride] gave an IC50 of under 50 nM. Work on Cc1cc(N[C@H]2CC[C@@H](NC(=O)c3cccc(Cl)c3)CC2)nc2ccccc12 [Example 3073, 3-Chloro-N-[cis-4-(4-methyl-quinolin-2-ylamino)-cyclohexyl]-benzamide hydrochloride] yielded an IC50 of under 50 nM. Cc1cc(N[C@H]2CC[C@@H](NC(=O)c3csc([N+](=O)[O-])c3)CC2)nc2ccccc12 [Example 3074, 5-Nitro-thiophene-3-carboxylic acid [cis-4-(4-methyl-quinolin-2-ylamino)-cyclohexyl]-amide hydrochloride] was tested, and the IC50 was under 50 nM. Work on Cc1cccc(C(=O)N[C@H]2CC[C@@H](Nc3cc(C)c4ccccc4n3)CC2)c1 [Example 3075, 3-Methyl-N-[cis-4-(4-methyl-quinolin-2-ylamino)-cyclohexyl]-benzamide hydrochloride] yielded an IC50 of under 50 nM. With COc1cccc(C(=O)N[C@H]2CC[C@@H](Nc3cc(C)c4ccccc4n3)CC2)c1 [Example 3076, 3-Methoxy-N-[cis-4-(4-methyl-quinolin-2-ylamino)-cyclohexyl]-benzamide hydrochloride] the IC50 was under 50 nM. Molecule Cc1cc(N[C@H]2CC[C@@H](NC(=O)c3ccc(C#N)cc3)CC2)nc2ccccc12 [Example 3077, 4-Cyano-N-[cis-4-(4-methyl-quinolin-2-ylamino)-cyclohexyl]-benzamide hydrochloride] has an IC50 of under 50 nM. Molecule Cc1cc(N[C@H]2CC[C@@H](NC(=O)c3ccc(Cl)c(Cl)c3)CC2)nc2ccccc12 [Example 3078, 3,4-Dichloro-N-[cis-4-(4-methyl-quinolin-2-ylamino)-cyclohexyl]-benzamide hydrochloride] has an IC50 of under 50 nM. With Cc1cc(C(=O)N[C@H]2CC[C@@H](Nc3cc(C)c4ccccc4n3)CC2)ccc1F [Example 3080, 4-Fluoro-3-methyl-N-[cis-4-(4-methyl-quinolin-2-ylamino)-cyclohexyl]-benzamide hydrochloride] the IC50 was under 50 nM. Cc1cc(N[C@H]2CC[C@@H](NC(=O)c3cc([N+](=O)[O-])cn3C)CC2)nc2ccccc12 [Example 3081, 1-Methyl-4-nitro-1H-pyrrole-2-carboxylic acid-[cis-4-(4-methyl-quinolin-2-ylamino)-cyclohexyl]-amide hydrochloride] gave an IC50 of under 50 nM. Molecule Cc1cc(N[C@H]2CC[C@@H](NC(=O)C3c4ccccc4Oc4ccccc43)CC2)nc2ccccc12 [Example 3082, 9H-Xanthene-9-carboxylic acid-[cis-4-(4-methyl-quinolin-2-ylamino)-cyclohexyl]-amide hydrochloride] has an IC50 of under 50 nM. Work on Cc1cc(N[C@H]2CC[C@@H](NC(=O)c3ccc(Br)o3)CC2)nc2ccccc12 [Example 3083, 5-Bromo-furan-2-carboxylic acid-[cis-4-(4-methyl-quinolin-2-ylamino)-cyclohexyl]-amide hydrochloride] yielded an IC50 of under 50 nM. Work on Cc1cccc(OCC(=O)N[C@H]2CC[C@@H](Nc3cc(C)c4ccccc4n3)CC2)c1 [Example 3084, N-[cis-4-(4-Methyl-quinolin-2-ylamino)-cyclohexyl]-2-m-tolyloxy-acetamide hydrochloride] yielded an IC50 of under 50 nM. Cc1cc(N[C@H]2CC[C@@H](NC(=O)c3ccc4nonc4c3)CC2)nc2ccccc12 [Example 3085, Benzo[2,1,3]oxadiazole-5-carboxylic acid-[cis-4-(4-methyl-quinolin-2-ylamino)-cyclohexyl]-amide hydrochloride] was tested, and the IC50 was under 50 nM. Work on Cc1cc(N[C@H]2CC[C@@H](NC(=O)c3cccc(Br)c3)CC2)nc2ccccc12 [Example 3086, 3-Bromo-N-[cis-4-(4-methyl-quinolin-2-ylamino)-cyclohexyl]-benzamide hydrochloride] yielded an IC50 of under 50 nM. Cc1cc(N[C@H]2CC[C@@H](NC(=O)c3cccc(C#N)c3)CC2)nc2ccccc12 [Example 3087, 3-Cyano-N-[cis-4-(4-methyl-quinolin-2-ylamino)-cyclohexyl]-benzamide hydrochloride] gave an IC50 of under 50 nM. In the case of Cc1cc(N[C@H]2CC[C@@H](NC(=O)c3cccc(C(F)(F)F)c3)CC2)nc2ccccc12 [Example 3088, N-[cis-4-(4-Methyl-quinolin-2-ylamino)-cyclohexyl]-3-trifluoromethyl-benzamide hydrochloride], the IC50 is reported as under 50 nM. Cc1cc(N[C@H]2CC[C@@H](NC(=O)C(c3ccccc3)c3ccccc3)CC2)nc2ccccc12 [Example 3089, N-[cis-4-(4-Methyl-quinolin-2-ylamino)-cyclohexyl]-2,2-diphenyl-acetamide hydrochloride] showed an IC50 of under 50 nM. Work on Cc1cc(N[C@H]2CC[C@@H](NC(=O)c3cccnc3Oc3ccc(F)cc3)CC2)nc2ccccc12 [Example 3090, 2-(4-Fluoro-phenoxy)-N-[cis-4-(4-methyl-quinolin-2-ylamino)-cyclohexyl]-nicotinamide hydrochloride] yielded an IC50 of under 50 nM. Work on Cc1cc(N[C@H]2CC[C@@H](NC(=O)c3cccnc3Oc3ccc(F)c(F)c3)CC2)nc2ccccc12 [Example 3091, 2-(3,4-Difluoro-phenoxy)-N-[cis-4-(4-methyl-quinolin-2-ylamino)-cyclohexyl]-nicotinamide hydrochloride] yielded an IC50 of under 50 nM.
